The text below walks through data of patent publication US20230310427A1, “NEW THERAPEUTIC USE OF RILPIVIRINE” (UNIVERSITY OF SOUTH AUSTRALIA, priority 2020, published 2023).

The subject of one assay is PC3 cells. The experiment in a line: Cell cycle analysis (flow cytometry). It counts as cell-based. The following applies: 48 hour treatment. On the procedure: (§1) The effect of Rilpivirine on cell cycle distribution in different cancer cell lines was evaluated by flow cytometric analysis. Briefly, cells were seeded in 6-well plates at a density of 6 × 10^4 cells/well. All plates were incubated overnight at 37° C. in a 5% CO2 incubator. Following the incubation, the test compounds (Rilpivirine (Ril) and comparators, Alisertib (Ali; a known Aurora A inhibitor) and Etravirine (Etra; 4-[[6-amino-5-bromo-2-[(4-cyanophenyl)amino]-4-pyrimidinyl]oxy]-3,5-dimethylbenzonitrile - a structurally similar NNRTI drug compound sold under the brand name Intelence® (Janssen Therapeutics)) were added to individual wells and the plates were incubated at same condition for 24 h, 48 h or 72 h. Subsequently, the medium was removed from the wells and transferred into fluorescence-activated cell sorting (FACS) tubes. The adherent cells remaining were trypsinised, re-suspended in media and transferred into the FACS tubes. Cells were centrifuged, fixed with cold 70% ethanol for 15 min and pelleted. The pelleted cells were then re-suspended in 200 µL propidium iodide (PI) solution (50 µg/mL propidium iodide, 0.1 mg/mL ribonuclease A, 0.1% sodium citrate, 0.1% triton X-100) and incubated in the dark for 1.5 h at room temperature. Following the incubation, 200 µL PBS was added. Samples were assessed using a flow cytometer (Cytoflex; Beckman Coulter Inc, Brea, CA, United States of America) and data were analysed using the Cytexpert software.
In general terms: A flow cytometer gives signals particle by particle.

The subject of another assay is T47D cells. Kind of assay: Cell cycle analysis (flow cytometry). It is filed as cell-based. Conditions: 48-hour treatment. The method, then: as §1
The target in a further assay is T1, Aurora B kinase (Homo sapiens, UniProt Q96GD4).
T1 construct: purchased Promega (ADP-Glo kits) or Reaction Biology Corporation / Eurofins discovery services (external)
The experiment in a line: Kinase assay. It is filed as biochemical. The following applies: kinase inhibition profiling (FIG. 2), concentration not given. The method, then: (§2) The ability of compounds to inhibit kinases was measured using ADP-Glo^Tm assay kits (Promega, Madison, WI, United States of America) or externally using radioisotope based assays (Reaction Biology Corporation, Malvern, PA, United States of America and Eurofins discovery services, France). The ADP-Glo assay was performed as reported previously (Basnet SK et al., Mol Pharmacol 88(5):935-948, 2015).The assay plate was read for luminescence using Envision multi-label plate reader (PerkinElmer, Waltham, MA, United States of America). Half-maximal inhibition (IC50) values were determined from a plot of percent residual activity versus concentration of test compounds using GraphPad Prism software. Ki values were calculated from IC50 values using the Cheng-Prusoff equation: Ki= IC50/ [1 + ([ATP]/Km ATP)], where [ATP] is the ATP concentration used for the IC50 determination and Km ATP for each kinase is determined from an individual experiment.

Another assay addresses T2, Aurora A kinase (Homo sapiens, UniProt O14965).
T2 construct: purchased Promega (ADP-Glo kits) or Reaction Biology Corporation / Eurofins discovery services (external)
T2 sequence (O14965 1-403): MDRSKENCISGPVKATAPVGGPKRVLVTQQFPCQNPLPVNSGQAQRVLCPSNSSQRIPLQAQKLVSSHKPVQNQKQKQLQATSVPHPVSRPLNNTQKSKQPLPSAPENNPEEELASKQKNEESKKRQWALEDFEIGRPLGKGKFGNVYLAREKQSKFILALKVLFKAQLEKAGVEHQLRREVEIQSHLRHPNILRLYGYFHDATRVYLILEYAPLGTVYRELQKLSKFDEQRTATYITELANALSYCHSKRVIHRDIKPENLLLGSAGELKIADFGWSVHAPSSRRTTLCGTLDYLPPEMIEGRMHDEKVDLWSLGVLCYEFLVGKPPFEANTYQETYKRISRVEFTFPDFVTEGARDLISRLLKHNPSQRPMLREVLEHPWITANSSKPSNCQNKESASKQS
Kind of assay: Kinase assay. It counts as biochemical. The following applies: kinase inhibition profiling (FIG. 2), concentration not given. On the procedure:
as §2

T1 sequence (Q96GD4 whole entry): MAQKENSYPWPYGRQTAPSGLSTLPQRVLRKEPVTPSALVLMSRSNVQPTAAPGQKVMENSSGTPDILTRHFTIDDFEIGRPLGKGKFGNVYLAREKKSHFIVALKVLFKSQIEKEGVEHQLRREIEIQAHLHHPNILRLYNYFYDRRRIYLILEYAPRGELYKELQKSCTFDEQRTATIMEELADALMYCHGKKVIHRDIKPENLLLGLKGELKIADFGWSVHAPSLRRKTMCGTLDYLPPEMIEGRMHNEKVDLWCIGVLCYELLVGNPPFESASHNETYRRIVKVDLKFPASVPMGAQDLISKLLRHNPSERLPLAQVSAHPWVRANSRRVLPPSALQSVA

`COc1cc(Nc2ncc3c(n2)-c2ccc(Cl)cc2C(c2c(F)cccc2OC)=NC3)ccc1C(=O)O` [Alisertib]: the cell cycle arrest entry is on record as “induce G2/M arrest” in the assay on PC3 cells (p53 mutant) and “arrest T47D breast cancer cells in G2/M phase” with T47D cells (p53 mutant).
Regarding `Cc1cc(C#N)cc(C)c1Oc1nc(Nc2ccc(C#N)cc2)nc(N)c1Br` [Etravirine, 4-[[6-amino-5-bromo-2-[(4-cyanophenyl)amino]-4-pyrimidinyl]oxy]-3,5-dimethylbenzonitrile], the figures for the cell cycle arrest result in the assay with PC3 cells (10 µM) and in the assay on T47D cells (10 µM) were “did not induce G2/M arrest” and “no G2/M arrest”, respectively. In addition, the “inhibitory activity against Aurora B” value at Aurora B kinase is reported as “no inhibitory activity”. The “inhibitory activity against Aurora A” value against Aurora A kinase is “no inhibitory activity”.
